In ChEMBL document CHEMBL4602657, “Design and evaluation of Nrf2 activators with 1,3,4-oxa/thiadiazole core as neuro-protective agents against oxidative stress in PC-12 cells” (Bioorg Med Chem Lett, 2020):
≈ marks a conversion by molar mass, not a printed value. Calls of active or inactive are those of the source. No cut-off for these calls is given here.

Columns and labels:
[1] = molecular target: T1, Nuclear factor erythroid 2-related factor 2 (Homo sapiens) (UniProt Q16236); test: Activation of Nrf2 in human HepG2-ARE-C8 cells assessed as fold change at 0.1 uM measured after 12 hrs by luciferase reporter gene assay relative to control; assay type: cell-based
T1 sequence (whole entry): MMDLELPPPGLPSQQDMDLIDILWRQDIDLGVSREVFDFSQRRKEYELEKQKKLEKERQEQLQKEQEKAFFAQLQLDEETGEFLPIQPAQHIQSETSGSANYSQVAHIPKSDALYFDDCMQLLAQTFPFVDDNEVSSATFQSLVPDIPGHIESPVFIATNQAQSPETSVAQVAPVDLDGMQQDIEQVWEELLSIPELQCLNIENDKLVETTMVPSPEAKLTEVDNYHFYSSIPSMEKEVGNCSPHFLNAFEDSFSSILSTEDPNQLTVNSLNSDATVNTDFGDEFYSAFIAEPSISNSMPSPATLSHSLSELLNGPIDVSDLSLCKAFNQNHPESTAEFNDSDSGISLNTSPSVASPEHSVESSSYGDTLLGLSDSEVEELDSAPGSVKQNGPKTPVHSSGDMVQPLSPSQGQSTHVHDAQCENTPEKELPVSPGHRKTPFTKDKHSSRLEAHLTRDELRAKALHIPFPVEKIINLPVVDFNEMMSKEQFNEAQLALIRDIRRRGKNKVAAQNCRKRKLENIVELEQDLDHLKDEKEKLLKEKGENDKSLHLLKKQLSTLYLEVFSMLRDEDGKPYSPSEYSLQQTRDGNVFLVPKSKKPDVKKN

[2] = molecular target: T1, Nuclear factor erythroid 2-related factor 2 (Homo sapiens); test: Activation of Nrf2 in human HepG2-ARE-C8 cells assessed as fold change at 1 uM measured after 12 hrs by luciferase reporter gene assay relative to control; assay type: cell-based
[3] = molecular target: T1, Nuclear factor erythroid 2-related factor 2 (Homo sapiens); test: Activation of Nrf2 in human HepG2-ARE-C8 cells assessed as fold change at 10 uM measured after 12 hrs by luciferase reporter gene assay relative to control; assay type: cell-based
[4] = molecular target: T1, Nuclear factor erythroid 2-related factor 2 (Homo sapiens); test: Activation of Nrf2 in human HepG2-ARE-C8 cells assessed as fold change at 20 uM measured after 12 hrs by luciferase reporter gene assay relative to control; assay type: cell-based
[5] = molecular target: T1, Nuclear factor erythroid 2-related factor 2 (Homo sapiens); test: Activation of Nrf2 in human HepG2-ARE-C8 cells assessed as fold change at 40 uM measured after 12 hrs by luciferase reporter gene assay relative to control; assay type: cell-based
[6] = molecular target: T1, Nuclear factor erythroid 2-related factor 2 (Homo sapiens); test: Activation of Nrf2 in human HepG2-ARE-C8 cells assessed as fold change at 80 uM measured after 12 hrs by luciferase reporter gene assay relative to control; assay type: cell-based
PC-12 [7] = test: Cytotoxicity against rat PC12 cells assessed as reduction in cell viability incubated for 24 hrs by MTT assay; assay type: cell-based; settings: PC-12, 24 h
SH-SY5Y [8] = test: Cytotoxicity against human SH-SY5Y cells assessed as reduction in cell viability at 100 uM by MTT assay; assay type: cell-based
SH-SY5Y [9] = test: Neuroprotective activity in human SH-SY5Y cells assessed as reduction in H2O2-induced cell damage at 5 uM preincubated for 6 hrs followed by H2O2 treatment and measured after 12 hrs by MTT assay; assay type: functional, cell-based
SH-SY5Y [10] = test: Neuroprotective activity in human SH-SY5Y cells assessed as reduction in H2O2-induced cell damage at 10 to 20 uM preincubated for 6 hrs followed by H2O2 treatment and measured after 12 hrs by MTT assay; assay type: functional, cell-based
[11] = Lipophilicity, logD of the compound at pH 7.4; assay type: physicochemical; settings: buffer
[12] = Intrinsic aqueous solubility of the compound; assay type: physicochemical; settings: read-out: Intrinsic_solubility
PC-12 [13] = test: Upregulation of Nrf2 mRNA in rat PC12 cell incubated for 12 hrs by qRT-PCR analysis; assay type: functional, cell-based
PC-12 [14] = test: Upregulation of NQ-O1 mRNA in rat PC12 cell incubated for 12 hrs by qRT-PCR analysis; assay type: functional, cell-based
PC-12 [15] = test: Upregulation of HO-1 mRNA in rat PC12 cell incubated for 12 hrs by qRT-PCR analysis; assay type: functional, cell-based
PC-12 [16] = test: Upregulation of Nrf2 protein level in rat PC12 cell incubated for 12 hrs by Western blot analysis; assay type: functional, cell-based
PC-12 [17] = test: Upregulation of NQ-O1 protein level in rat PC12 cell incubated for 12 hrs by Western blot analysis; assay type: functional, cell-based
PC-12 [18] = test: Upregulation of HO-1 protein level in rat PC12 cell incubated for 12 hrs by Western blot analysis; assay type: functional, cell-based
[19] = Permeability of the compound by PAMPA; assay type: ADME; settings: read-out: permeability

SMILES	fold change (FC) [1]	fold change (FC) [2]	fold change (FC) [3]	fold change (FC) [4]	fold change (FC) [5]	fold change (FC) [6]	IC50 (PC-12 [7]) [µM]	Activity (SH-SY5Y [8])	Activity (SH-SY5Y [9])	Activity (SH-SY5Y [10])	logD [11]	solubility [12] [µM]	Activity (PC-12 [13])	Activity (PC-12 [14])	Activity (PC-12 [15])	Activity (PC-12 [16])	Activity (PC-12 [17])	Activity (PC-12 [18])	Papp [19] [×10⁻⁶ cm/s]
O=[N+]([O-])c1ccc(-c2nnc(-c3ccc4nc[nH]c4c3)s2)cc1	2.2	5.75	19.4	17.4	22.2	24.6	> 500	Non-Toxic	Active	inactive									
CCCCc1ccc(-c2nnc(-c3ccc4nc[nH]c4c3)s2)cc1	1.08	2.33	2.3	1.68	1.33	1.43													
c1ccc(-c2ccc(-c3nnc(-c4ccc5nc[nH]c5c4)o3)cc2)cc1	0.9	1.6	1.58	3.15	5.18	9.1													
c1ccc(-c2nnc(-c3ccc4nc[nH]c4c3)s2)cc1	1.7	2.03	8.95	8.18	13.8	15.7													
N#Cc1ccc(-c2nnc(-c3ccc4nc[nH]c4c3)o2)cc1	1.4	1.65	1.33	2.35	1.78	2.83													
Fc1cccc(-c2nnc(-c3ccc4nc[nH]c4c3)o2)c1	1.45	2.38	1.35	1.65	1.75	1.63													
Fc1ccc(-c2nnc(-c3ccc4nc[nH]c4c3)o2)cc1	1.58	1.28	2.6	6.83	8.73	24.4					2.89	102 (≈ 28.7 µg/mL)							
c1ccc(-c2nnc(-c3ccc4nc[nH]c4c3)o2)cc1	1.7	2.35	6.7	9.15	13.5	19.1													
CC(C)(C)c1cc(O)ccc1O	1.68	1.7			5.1	4.73													
Fc1ccc(-c2nnc(-c3ccc4nc[nH]c4c3)s2)cc1	1.6	3.25	13.1	14.9	22.3	9.9	> 500	Non-Toxic	inactive	Active									
COc1cccc(-c2nnc(-c3ccc4nc[nH]c4c3)o2)c1	1.64	1.72	1.72	1.83	2.41	7.5													
O=[N+]([O-])c1ccc(-c2nnc(-c3ccc4nc[nH]c4c3)o2)cc1	1.5	1.9	7.68	12.2	20.1	33.8	> 100	Non-Toxic	Active	inactive									
Brc1ccc(-c2nnc(-c3ccc4nc[nH]c4c3)o2)cc1	2.05	4.85	7.98	8.08	6.23	7.98													
CCCCc1ccc(-c2nnc(-c3ccc4nc[nH]c4c3)o2)cc1	1.8	6.73	14.8	15.9	24.6	19.6	> 100	Non-Toxic	inactive	Active			Dose-dependent effect	Dose-dependent effect	Dose-dependent effect	Dose-dependent effect	Dose-dependent effect	Dose-dependent effect	12.3
Cc1ccc(-c2nnc(-c3ccc4nc[nH]c4c3)o2)cc1	1.4	1.45	3.25	3.35	4.95	6.6													
